Laboratory results from BindingDB's records for patent US10100058 (Gilead Sciences, 2018).

The molecules below were run against Calcium/calmodulin-dependent protein kinase type II subunit delta (Homo sapiens, UniProt Q13557) (assay: CaMKII delta Biochemical Assay).
Chain of Calcium/calmodulin-dependent protein kinase type II subunit delta (Q13557 whole entry): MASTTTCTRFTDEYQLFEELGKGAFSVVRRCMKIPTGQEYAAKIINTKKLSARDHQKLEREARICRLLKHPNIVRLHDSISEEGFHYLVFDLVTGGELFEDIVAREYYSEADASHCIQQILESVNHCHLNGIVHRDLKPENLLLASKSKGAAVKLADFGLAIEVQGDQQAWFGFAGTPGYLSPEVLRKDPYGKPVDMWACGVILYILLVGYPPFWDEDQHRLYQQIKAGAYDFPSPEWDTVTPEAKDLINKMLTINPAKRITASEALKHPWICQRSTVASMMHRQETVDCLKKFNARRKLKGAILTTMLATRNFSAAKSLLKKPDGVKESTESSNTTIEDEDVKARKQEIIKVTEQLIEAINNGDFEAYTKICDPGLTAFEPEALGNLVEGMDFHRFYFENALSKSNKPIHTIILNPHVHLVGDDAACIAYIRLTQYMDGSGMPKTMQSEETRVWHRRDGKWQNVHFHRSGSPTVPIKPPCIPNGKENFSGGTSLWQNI
Protocol: The biochemical activity of recombinant CaMKIIδ was measured by monitoring the phosphorylation of a target peptide using Homogenous Time Resolved Fluorescence (HTRF) technology from CisBio Bioassays.
Molecule CCC(N)CNC(=O)c1ccnc(-c2cnn3ccc(-c4cccs4)nc23)c1 (stereo not drawn) [US10100058, Example 25] has an IC50 of 8.62 nM. With CCN(CC)[C@@H](CO)CNC(=O)c1ccnc(-c2cnn3ccc(-c4ccccc4)nc23)c1 [US10100058, Example 58] the IC50 was 3.35 nM. Molecule CC(C)(N)CNC(=O)c1ccnc(-c2cnn3ccc(-c4ccccc4)nc23)c1 [US10100058, Example 64] has an IC50 of 99.9 nM. CCN(CC)[C@@H](C)CNC(=O)c1cc(-c2cnn3ccc(-c4cccs4)nc23)nc(N2CC(NS(=O)(=O)Cc3ccon3)C2)c1 [US10100058, Example 175] gave an IC50 of 0.24 nM. For CCN(CC)[C@@H](C)CNC(=O)c1cc(-c2cnn3ccc(-c4cccs4)nc23)nc(N2CC[C@H]2C(=O)NCCO)c1 [US10100058, Example 297], the IC50 was 0.33 nM. CN(CCn1ccnc1)c1cc(C(=O)N2CC3CCC(C2)NC3)cc(-c2cnn3ccc(-c4cccs4)nc23)n1 (stereo not drawn) [US10100058, Example 321] gave an IC50 of 9.11 nM. In the case of COC1CN(c2cc(C(=O)N3CC[C@H](N)C3)cc(-c3cnn4ccc(-c5cccs5)nc34)n2)C1 [US10100058, Example 327], the IC50 is reported as 9.25 nM. In the case of CCN(CC)[C@@H](C)CNC(=O)c1cc(OCCN(C)C)nc(-c2cnn3ccc(-c4cccs4)nc23)c1 [US10100058, Example 347], the IC50 is reported as 0.1 nM.
